# Experimental data taken from patent US20150337349A1, “Microbiome Modulation Index” (SECOND GENOME, INC., priority 2013, published 2015).
# Structures can show the parent of a compound that is named as a salt.
# Tested on: fecal microbial communities (OTUs)
# Experiment: Microbiome Modulation Index (MMI) from 16S rRNA V4 profiling of fecal samples before and after agent administration
# Assay type: in vivo, c57bl/6 mice
# Settings: oral gavage daily for 5 consecutive days at Table 1 mouse dose; day 0 vs day 5 fecal samples; MMI = d/d0 relative to control mice; variability weight gi applied
# Description: Twenty five agents were selected to span multiple indications (Table 1). For each agent, the effective dose for the mouse was determined through a comprehensive search of the literature (Table 1). Working formulations were created by suspending agents in 1× phosphate buffered saline (PBS).
# A total of 156 six-week old c57bl/6 mice (78 males and 78 females) were housed in separate cages 5 days prior to agent administration. Animals were handled daily by caretakers during this acclimation period. Animals were fed a standard chow diet throughout the course of the study.
# Animals were treated with agents via oral gavage daily for 5 consecutive days beginning on day 1. N=6 mice per agent; 3 male+3 female. Fecal samples were collected using the ‘clean catch’ method in which the mice were held by the tail, causing them to defecate. Feces were collected in a sterile tube and immediately frozen and stored at −80° C. Fecal samples were collected in the morning prior to agent administration on the following days: −1,0,4,5.
# Frozen day 0 and day 5 fecal specimens corresponding to 15 treatment groups (PBS+(Table 3) were profiled using Second Genome's Microbiome Signature Discovery™ service (San Bruno, Calif.). DNA was isolated using the PowerSoil DNA Isolation Kit following the manufacturer's instructions (MoBio Laboratories, Carlsbad, Calif.). For V4 sequencing assay profiling, the V4 region of the 16S rRNA genes was amplified using fusion primers tailed with Illumina sequencing adapters and indexing barcodes according to a previously described technique (Caporaso, 2010, PMID: 20534432). For each sample, amplified products were concentrated, purified and quantified by electrophoresis using an Agilent 2100 Bioanalyzer, then pooled for sequencing using the MiSeq (Illumina, San Diego, Calif.) instrument.
# Using the software QIIME (Kuczynski, 2012, PMID: 23184592) and custom scripts, sequences were quality filtered and de-multiplexed using exact matches to the supplied DNA barcodes. Resulting sequences were then clustered into reference OTUs (rOTUs) by uclust (Edgar, 2010, PMID: 20709691) matching each sequence against the Greengenes sequences pre-clustered at 97%, a practice commonly referred to as “closed-reference OTU picking”. The longest Illumina-generated sequence from each of OTUs thus formed was then used as the OTU representative sequence, and assigned taxonomic classification via mothur's bayesian classifier (Schloss, 2009, PMID: 19801464) trained against the Greengenes database. Taxonomic annotations at 80% bootstrapped confidence were applied. Total sequence counts per fecal sample were scaled to be identical. Seven samples (MDO5M027D0, MD10M057D0, Md12F07D0, MD01F006D5, MD06F035D5, MD13M074D5, and MD04F023D5) were excluded following sequence quality filtering and alignment due to low sequence yield. Taxa were filtered to those present in at least one of the samples.
# MMIs were calculated for the PBS control and 14 of the tested drugs. To calculate the MMI of an agent, an intermediate value d was calculated for each mouse administered with the respective agent. The abundance of each OTU before treatment in that mouse was compared to the abundance of that OTU after treatment as in exemplary Equation 11: […]
# where A1i represents the abundance of OTU i at time-point 1 (post-administration), where A0i represents the abundance of OTU i at time-point 0 (pre-administration) gi represents a variability weight applied to each OTU, discussed below.
# Once d was calculated for each mouse, d values for each administered mouse are averaged, and the resulting d was compared to a reference level of change d0 in a control group of mice not administered the agent. The value d0 is determined on the basis of laboratory studies of untreated mice in similar conditions (e.g., a similar number of samples to the number of samples obtained from treated mice).
# The MMI is then calculated as in exemplary Equation 12: […]
row,SMILES,MMI
1,OC(Cn1cncn1)(Cn1cncn1)c1ccc(F)cc1F [Fluconazole],1.003
2,CC(=O)Oc1ccccc1C(=O)O [Acetylsiacylic_acid],1.093
3,CC1(C)S[C@@H]2[C@H](NC(=O)[C@H](N)c3ccc(O)cc3)C(=O)N2[C@H]1C(=O)O [Amoxycillin],2.397
4,CC(C)c1c(C(=O)Nc2ccccc2)c(-c2ccccc2)c(-c2ccc(F)cc2)n1CC[C@@H](O)C[C@@H](O)CC(=O)O [Atorvastatin_calcium_salt_trihydrate],1.278
5,Nc1ccc(O)c(C(=O)O)c1 [Mesalamine],1.131
6,NCCCC(O)(P(=O)(O)O)P(=O)(O)O [Alendronate_sodium_trihydrate],1.107
7,Cc1ccc(-c2nc3ccc(C)cn3c2CC(=O)N(C)C)cc1 [Zolpidem_tartrate],1.443
8,CC[C@H]1OC(=O)[C@H](C)[C@@H](O[C@H]2C[C@@](C)(OC)[C@@H](O)[C@H](C)O2)[C@H](C)[C@@H](O[C@@H]2O[C@H](C)C[C@H](N(C)C)[C@H]2O)[C@](C)(O)C[C@@H](C)CN(C)[C@H](C)[C@@H](O)[C@]1(C)O [Azithromycin],2.202
9,CNCCC(Oc1ccc(C(F)(F)F)cc1)c1ccccc1 (centres unmarked) [Fluoxetine_hydrochloride],1.44
10,CCN(CC)CCOC(=O)C1(C2CCCCC2)CCCCC1 [Dicyloamine_hydrochloride],1.222
11,CN(C)C(=N)N=C(N)N [Metformin_hydrochloride],1.628
12,COc1ccc2[n-]c([S@@+]([O-])Cc3ncc(C)c(OC)c3C)nc2c1.COc1ccc2[n-]c([S@@+]([O-])Cc3ncc(C)c(OC)c3C)nc2c1.[Mg+2] [Esomeprazole_magnesium_hydrate],1.1
13,C[C@]12C=CC(=O)C=C1CC[C@@H]1[C@@H]2[C@@H](O)C[C@@]2(C)[C@H]1CC[C@]2(O)C(=O)COC(=O)CCC(=O)[O-].[Na+] [Prednisalone_21-hemisuccinate_sodium_salt],1.262
14,CN(C)CCOC(c1ccccc1)c1ccccc1 [Diphenhydramine_hydrochloride],1.202
